Results as given in patent publication US12441706B2, “Protein degradation agent compound preparation method and application” (SHANGHAI JEMINCARE PHARMACEUTICALS CO., LTD., priority 2019, dated 2025).
Read-outs that look alike come from different tables or passages of the source. Values belong to the molecule of their own block, whether it stands above or below them.

Columns and labels:
[1] = tested on: LNcap FGC cells; assay: Inhibition of proliferation of LNcap FGC cells (Cell Titer Glo, 6 days); type: cell-based; conditions: Homo sapiens, 144 h
Protocol: Tumor cell line LNcap FGC (ATCC catalog number CRL-1740) was cultured in RPMI 1640 (Gibco catalog number 11875-093) and DMEM (Gibco catalog number. 11965-092) medium containing 10% FBS (Gibco catalog number 10099-141C), respectively.
(§1) LNcap FGC cells were inoculated in a 384-well plate (Perkin Elmer catalog number 6007460) at a cell density of 400 cells/well in a volume of 20 μL/well and incubated overnight in a carbon dioxide incubator (Thermo). The prepared compound solutions of different concentrations were added in a volume of 5 μL/well. The corresponding vehicle control was set at the same time. After being cultured in the incubator for 6 days, the cell plate and the contents were equilibrated to room temperature, and 25 μL of Cell Titer Glor (Promega catalog number G7573) was added to each well, shook and mixed well, incubated in dark for 10-30 minutes, and the signal values were detected with Envision microplate reader (PerkinElmer).
(§2) The percentage inhibition rate of compound-treated wells was calculated from the vehicle control wells on the plate, and the percentage inhibition rate data corresponding to different concentrations were fitted by GraphPad prism, and the IC50 values were calculated by 4-parameter nonlinear logic formula.

[2] = target: T1, androgen receptor (Homo sapiens, UniProt P10275, T878A); assay: In-Cell-Western determination of androgen receptor degradation in LnCaP cells; type: cell-based; conditions: for DC50: concentration for half of the maximal degradation of AR in LnCaP cells
T1 construct: endogenous in cells; host or cells: LNCaP cells
T1 sequence (P10275 1-920 T878A): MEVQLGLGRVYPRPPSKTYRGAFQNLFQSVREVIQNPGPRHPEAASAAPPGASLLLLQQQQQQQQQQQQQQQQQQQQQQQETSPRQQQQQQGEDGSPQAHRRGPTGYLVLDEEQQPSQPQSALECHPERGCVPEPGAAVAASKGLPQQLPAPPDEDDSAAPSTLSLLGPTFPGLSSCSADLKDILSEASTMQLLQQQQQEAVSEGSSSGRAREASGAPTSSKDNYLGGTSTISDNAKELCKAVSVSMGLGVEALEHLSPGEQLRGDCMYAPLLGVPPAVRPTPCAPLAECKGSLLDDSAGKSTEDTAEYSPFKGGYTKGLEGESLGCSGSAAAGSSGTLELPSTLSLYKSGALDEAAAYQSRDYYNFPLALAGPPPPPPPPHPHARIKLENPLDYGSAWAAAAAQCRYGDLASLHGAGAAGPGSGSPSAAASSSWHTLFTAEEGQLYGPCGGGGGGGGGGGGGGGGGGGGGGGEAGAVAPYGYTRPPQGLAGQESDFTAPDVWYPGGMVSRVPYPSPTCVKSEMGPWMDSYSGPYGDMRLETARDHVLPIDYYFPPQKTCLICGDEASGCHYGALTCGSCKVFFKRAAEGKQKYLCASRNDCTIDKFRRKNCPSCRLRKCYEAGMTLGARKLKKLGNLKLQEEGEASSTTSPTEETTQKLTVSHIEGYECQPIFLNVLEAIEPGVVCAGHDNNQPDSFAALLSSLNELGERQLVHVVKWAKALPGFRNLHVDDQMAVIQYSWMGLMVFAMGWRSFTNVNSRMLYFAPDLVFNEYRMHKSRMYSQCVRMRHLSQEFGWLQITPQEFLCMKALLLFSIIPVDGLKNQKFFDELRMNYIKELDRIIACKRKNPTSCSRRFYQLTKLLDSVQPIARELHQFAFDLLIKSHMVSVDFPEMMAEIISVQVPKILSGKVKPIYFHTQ
Protocol: The determination evaluated the properties of the compounds in Lncap cells. Intracellular androgen receptor was determined by In-Cell-Western according to the determination steps described below.
In poly-D-Lysin pretreated 96-well cell culture plate (Corning 3599), LNcap cells were divided into 100 μL/well volume, and inoculated with 30,000 cells/well in LNcap cell assay medium [DMEM containing phenol red (Gibco catalog number: 11995065); fetal bovine serum FBS (Gibco catalog number: 10099141C)]. Cells were cultured for at least two days.
1. First treated cells with compound. Compounds were gradient diluted with DMSO and cell culture medium, so that DMSO contained in cell culture plates was diluted to 0.5% —polypropylene plates were used according to the following protocol: (1)(i) 200× stock plate in DMSO was prepared; (ii) 10 mM stock solution was diluted 1:4 with DMSO (10 μL stock solution+40 μL DMSO)=2000 μM, then entered into row 2; (iii) 1:4 (10 μL protac+40 μL DMSO) gradient dilution was performed from row 2 to row 9, and row 1 was reserved for […] reference compound and row 10 for DMSO. (iv) A total of 8 concentrations (final concentrations on the 200× plate were 2000 μM, 400 μM and 80 μM, etc.). (2) (i) 3× stock solution was prepared in the medium. (ii) 3 μL of 200× stock solution was transferred to 197 µL of culture medium (using 12-channel pipette, from line 1 to line 10), i.e. 3× stock solution plate. (iii) The stock solution plate was mixed evenly. (3) (i) The culture medium of […] cells was replaced with fresh culture medium, 100 μL volume culture medium. (ii) The well-mixed 3× stock solution was transferred to the cell culture plate (using a 12-channel pipette, and 50 μL of stock solution was transferred from line 1 to line 10). (iii) Cells were cultured for 24 hours.
2. The expression level of intracellular androgen receptor after compound treatment was […] and determined according to the following method.
(1)(i) Equal volume of 8% paraformaldehyde was added to the cell culture plate for cell fixation. The fixing solution in the cell plate was discarded and washed three times with PBS. (ii) Triton solution (1:1000 dilution of the stock solution) was prepared. The solution in the cell plate was discarded, and 200 μL of Triton diluent was added into each well. (iii) 2×blocking solution (1:4 dilution of 10×blocking stock solution) was prepared. The solution in the cell plate was discarded, and 100 μL of 2×blocking solution was added into each well. (iv) Primary antibody solution (Androgen receptor Rabbbit mAb, Cell Signaling Technology catalog number: 5153; 1:1000 dilution) was prepared. The solution in the cell plate was discarded, 100 μL volume of primary antibody diluent was added to each well, and incubated at 4° C. overnight. (v) The primary antibody solution was discarded and the cell plate was washed with 1×Wash buffer. (vi) Secondary antibody solution (GOAT Antirabbit IgG (H+L), HRP, Thermo catalog number: 31460; 1:5000 dilution) was prepared, and 100 μL volume of secondary antibody dilution was added to each well for incubation. (vii) The secondary antibody solution in the cell plate was discarded and the cell plate was washed with 1×Wash buffer. (viii) TMB chromogenic solution (BD catalog number: 550534) was prepared, and 100 μL chromogenic solution was added into each well. (ix) 50 μL volume of stop solution (BD catalog number: 550534) was added to each well. (x) The absorption values at OD 450 nm and 570 nm were read though EnVision. (2) (i) Normalized analysis was performed on the number of cells in each well. The solution in the cell plate was discarded, and washed with wash buffer for three times. (ii) Janus dilution (1:3 dilution) was prepared. (iii) 50 μL volume diluent was added to each well for incubation. (iv) The solution in the plate was discarded and washed with deionized water. […]

[3] = In vivo pharmacokinetics in mice, intravenous injection and oral administration; design: species or system mouse; conditions: male CD1 mice
Protocol: In this experimental example, in vivo pharmacokinetics in mice were evaluated by intravenous injection and oral administration.
Experimental methods and conditions: Male CD1 mice, aged 6-8 weeks, all animals were free access to food and water, and were given a single dose of the compound to be tested at 1 mg/Kg by intravenous injection (solvent 5% DMSO/15% Solutol/80% Saline), at 5 min, 15 min, 30 min, 1 hr, 2 hr, 4 hr, 8 hr, 24 hr, 48 h after drug administration, or oral gavage administration of 10 mg/kg (solvent 5% DMSO/10% Solutol/85% Saline), at 15 min, 30 min, 1 hr, 2 hr, 4 hr, 6 h, 8 hr, 24 hr, 48 h after administration, blood was collected from the orbit, no less than 50 μL for each sample, heparin sodium was used for anticoagulation, and then placed on ice after collection, and centrifuged within 1 hour to separate the plasma for testing. The plasma concentration of the drug was detected by liquid tandem mass spectrometry (LC/MS/MS), and the pharmacokinetic parameters were calculated by Phoenix WinNonlin software.

[4] = tested on: VCap cells; assay: Inhibition of proliferation of VCap cells (Cell Titer Glo, 6 days); type: cell-based; conditions: Homo sapiens, 144 h
Protocol: Tumor cell line VCap FGC (ATCC catalog number CRL-2876) was cultured in DMEM (Gibco catalog number 11965-092) medium containing 10% FBS (Gibco catalog number 10099-141C), respectively. During the determination, Vcap cells were replaced with DMEM medium containing 5% FBS and 0.1 nM R1881 (Sigma catalog number R0908).
as §1, with “Vcap” for “LNcap”, “1200” for “400”, “shake” for “shook”, “mix” for “mixed”, “though” for “with”
as §2, with “from” for “from the”

[5] = LnCaP cell proliferation, 6 days, read-out: IC50
[6] = maximum degree of inhibition of LnCaP cell proliferation, 6 days, read-out: Emax
[7] = mouse, intravenous administration 1 mg/kg, plasma
[8] = mouse, oral administration 10 mg/kg, plasma

- IC50 [1, 5]: 0.0891 µM
SMILES: COc1cc(N2C(=O)C(C)(C)c3cc(-c4ccc(N5CC(CN6CCN(c7ccc8c(c7)C(=O)N(C7CCC(=O)NC7=O)C8=O)CC6)C5)cc4)ccc32)ccc1C#N (centres unmarked) [Compound 2]
- Emax [1, 6]: 98%

SMILES: CC1(C)C(=O)N(c2ccc(C#N)c(Cl)c2)c2ccc(-c3ccc(N4CC(CN5CCN(c6ccc7c(c6)CN(C6CCC(=O)NC6=O)C7=O)CC5)C4)cc3)cc21 (centres unmarked) [Compound 4]
- Dmax ([2]; LNCaP): 91%
- DC50 ([2]; 24 hours treatment): 0.108 µM

SMILES: CC1(C)C(=O)N(c2ccc(C#N)c(Cl)c2)c2ccc(-c3ccc(N4CC(F)(CN5CCN(c6ccc7c(c6)C(=O)N(C6CCC(=O)NC6=O)C7=O)CC5)C4)cc3)cc21 (centres unmarked) [Compound 5]
- IC50 [1, 5]: 0.0957 µM
- Emax [1, 6]: 93%

SMILES: CC1(C)C(=O)N(c2ccc(C#N)c(Cl)c2)c2ccc(-c3ncc(N4CC(CN5CCN(c6ccc7c(c6)C(=O)N(C6CCC(=O)NC6=O)C7=O)CC5)C4)cn3)cc21 (centres unmarked) [Compound 6]
- F ([3]; oral administration 10 mg/kg vs intravenous 1 mg/kg): 71.3%
- AUC(0-inf) [3, 7]: 9860 ng·h/mL
- clearance [3, 7]: 1.69 mL/min/kg
- half-life [3, 7]: 11.2 h
- AUC(0-inf) [3, 8]: 70300 ng·h/mL
- Cmax [3, 8]: 2920 ng/mL
- half-life [3, 8]: 11.2 h
- Emax ([1]; LNCaP): 99%
- IC50 ([1]; LNCaP): 0.0767 µM
- Emax ([4]; VCaP): 94%
- IC50 ([4]; VCaP): 0.081 µM

SMILES: CC1(C)C(=O)N(c2ccc(C#N)c(Cl)c2)c2ccc(-c3ccc(N4CC(CN5CCN(c6cc7c(cc6F)C(=O)N(C6CCC(=O)NC6=O)C7=O)CC5)C4)cc3)cc21 (centres unmarked) [Compound 7]
- Dmax ([2]; LNCaP): 75%
- DC50 ([2]; 24 hours treatment): 0.0721 µM

SMILES: CC1(C)C(=O)N(c2ccc(C#N)c(Cl)c2)c2ccc(-c3cnc(N4CC(CN5CCN(c6ccc7c(c6)C(=O)N(C6CCC(=O)NC6=O)C7=O)CC5)C4)cn3)cc21 (centres unmarked) [Compound 10]
- IC50 [1, 5]: 0.0394 µM
- Emax [1, 6]: 100%
- IC50 ([4]; VCaP cell proliferation, 6 days, 5% FBS and 0.1 nM R1881, read-out: IC50): 0.05 µM
- Emax ([4]; maximum degree of inhibition of VCaP cell proliferation, 6 days, 5% FBS and 0.1 nM R1881, read-out: Emax): 98%

- DC50 ([2]; 24 hours treatment, read-out: DC50): 0.0747 µM
- Dmax ([2]; maximum degradation of AR in LnCaP cells, 24 hours treatment, read-out: Dmax): 74%
SMILES: CC1(C)C(=O)N(c2cnc(C#N)c(Cl)c2)c2ccc(-c3ccc(N4CC(CN5CCN(c6ccc7c(c6)C(=O)N(C6CCC(=O)NC6=O)C7=O)CC5)C4)cc3)cc21 (centres unmarked) [Compound 11]

SMILES: CC1(C)C(=O)N(c2ccc(C#N)c(Cl)c2)c2ccc(-c3ccc(-c4cnn(CCN5CCN(c6ccc7c(c6)C(=O)N(C6CCC(=O)NC6=O)C7=O)CC5)c4)cc3)cc21 (centres unmarked) [Compound 12]
- Dmax ([2]; LNCaP): 75%
- DC50 ([2]; 24 hours treatment): 0.0788 µM
- Emax ([1]; LNCaP): 68%
- IC50 ([1]; LNCaP): 0.082 µM

SMILES: CC1(C)C(=O)N(c2ccc(C#N)c(Cl)c2)c2ccc(-c3ccc(-c4cnn(CCCN5CCN(c6ccc7c(c6)C(=O)N(C6CCC(=O)NC6=O)C7=O)CC5)c4)cc3)cc21 (centres unmarked) [Compound 13]
- Dmax ([2]; LNCaP): 100%
- DC50 ([2]; 24 hours treatment): 0.0734 µM

SMILES: CC1(C)C(=O)N(c2ccc(C#N)c(C(F)(F)F)c2)c2ccc(-c3ccc(N4CC(CN5CCN(c6ccc7c(c6)C(=O)N(C6CCC(=O)NC6=O)C7=O)CC5)C4)nc3F)cc21 (centres unmarked) [Compound 15]
- Dmax ([2]; LNCaP): 67%
- DC50 ([2]; 24 hours treatment): 0.00349 µM
- Emax ([4]; VCaP): 92%
- IC50 ([4]; VCaP): 0.082 µM
